Holding throughout (format): cell-based
One experiment concerns the target human TLR9 (Homo sapiens (Human), UniProt Q9NR96). Briefly: TLR9 inhibition reporter assay (HEK-Blue, SEAP). Conditions: HEK-Blue cells overexpressing human TLR9, ODN2006 5 nM stimulation. The essentials: (§1)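 After 30 min room-temperature pre-incubation with compound (0.05 nM–50 μM), reporter HEK-Blue lines were activated by ODN2006 5 nM for TLR9, R848 15.9 μM for TLR8 or gardiquimod 7.5 μM for TLR7. SEAP detected after 22 h, 37 °C; inhibition scaled between agonist+DMSO wells and known-inhibitor control.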
On the technique in general: In a reporter assay the amount or activity of a reporter protein is the signal.

The next experiment has as its target human TLR7 (Homo sapiens (Human), UniProt Q9NYK1). Briefly: TLR7 inhibition reporter assay (HEK-Blue, SEAP). As to conditions: HEK-Blue cells overexpressing human TLR7, gardiquimod 7.5 μM stimulation. The essentials: as §1
The target in a further experiment is human TLR8 (Homo sapiens (Human), UniProt Q9NR97). Briefly: TLR8 inhibition reporter assay (HEK-Blue, SEAP). Conditions: HEK-Blue cells overexpressing human TLR8, R848 15.9 μM stimulation. The method in brief:
as §1

Chain of human TLR9 (Q9NR96 26-1032): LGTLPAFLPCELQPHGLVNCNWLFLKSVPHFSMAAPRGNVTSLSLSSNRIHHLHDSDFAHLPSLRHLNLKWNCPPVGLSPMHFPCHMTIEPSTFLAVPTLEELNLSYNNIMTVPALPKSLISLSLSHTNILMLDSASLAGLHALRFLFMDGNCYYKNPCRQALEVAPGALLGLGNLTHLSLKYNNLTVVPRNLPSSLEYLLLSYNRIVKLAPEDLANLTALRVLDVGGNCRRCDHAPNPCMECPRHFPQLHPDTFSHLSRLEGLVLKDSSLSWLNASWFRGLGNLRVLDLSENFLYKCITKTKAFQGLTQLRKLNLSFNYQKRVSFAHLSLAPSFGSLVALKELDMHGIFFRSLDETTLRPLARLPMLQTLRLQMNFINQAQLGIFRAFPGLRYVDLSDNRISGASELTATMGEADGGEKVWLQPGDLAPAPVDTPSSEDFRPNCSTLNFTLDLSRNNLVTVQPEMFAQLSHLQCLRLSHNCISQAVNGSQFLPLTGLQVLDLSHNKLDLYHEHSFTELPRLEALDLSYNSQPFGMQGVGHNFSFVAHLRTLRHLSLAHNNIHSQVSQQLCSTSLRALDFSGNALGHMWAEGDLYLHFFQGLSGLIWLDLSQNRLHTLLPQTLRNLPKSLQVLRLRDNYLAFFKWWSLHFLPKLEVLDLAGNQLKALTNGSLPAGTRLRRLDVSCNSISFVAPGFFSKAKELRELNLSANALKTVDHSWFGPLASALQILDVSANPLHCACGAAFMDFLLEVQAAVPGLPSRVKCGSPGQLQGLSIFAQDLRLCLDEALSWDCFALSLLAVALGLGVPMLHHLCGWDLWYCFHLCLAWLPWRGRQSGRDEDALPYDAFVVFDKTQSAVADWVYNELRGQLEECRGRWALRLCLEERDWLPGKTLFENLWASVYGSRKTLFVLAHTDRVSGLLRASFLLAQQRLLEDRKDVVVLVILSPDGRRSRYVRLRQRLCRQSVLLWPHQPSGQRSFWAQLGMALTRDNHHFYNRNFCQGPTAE
Chain of human TLR8 (Q9NR97 27-1041): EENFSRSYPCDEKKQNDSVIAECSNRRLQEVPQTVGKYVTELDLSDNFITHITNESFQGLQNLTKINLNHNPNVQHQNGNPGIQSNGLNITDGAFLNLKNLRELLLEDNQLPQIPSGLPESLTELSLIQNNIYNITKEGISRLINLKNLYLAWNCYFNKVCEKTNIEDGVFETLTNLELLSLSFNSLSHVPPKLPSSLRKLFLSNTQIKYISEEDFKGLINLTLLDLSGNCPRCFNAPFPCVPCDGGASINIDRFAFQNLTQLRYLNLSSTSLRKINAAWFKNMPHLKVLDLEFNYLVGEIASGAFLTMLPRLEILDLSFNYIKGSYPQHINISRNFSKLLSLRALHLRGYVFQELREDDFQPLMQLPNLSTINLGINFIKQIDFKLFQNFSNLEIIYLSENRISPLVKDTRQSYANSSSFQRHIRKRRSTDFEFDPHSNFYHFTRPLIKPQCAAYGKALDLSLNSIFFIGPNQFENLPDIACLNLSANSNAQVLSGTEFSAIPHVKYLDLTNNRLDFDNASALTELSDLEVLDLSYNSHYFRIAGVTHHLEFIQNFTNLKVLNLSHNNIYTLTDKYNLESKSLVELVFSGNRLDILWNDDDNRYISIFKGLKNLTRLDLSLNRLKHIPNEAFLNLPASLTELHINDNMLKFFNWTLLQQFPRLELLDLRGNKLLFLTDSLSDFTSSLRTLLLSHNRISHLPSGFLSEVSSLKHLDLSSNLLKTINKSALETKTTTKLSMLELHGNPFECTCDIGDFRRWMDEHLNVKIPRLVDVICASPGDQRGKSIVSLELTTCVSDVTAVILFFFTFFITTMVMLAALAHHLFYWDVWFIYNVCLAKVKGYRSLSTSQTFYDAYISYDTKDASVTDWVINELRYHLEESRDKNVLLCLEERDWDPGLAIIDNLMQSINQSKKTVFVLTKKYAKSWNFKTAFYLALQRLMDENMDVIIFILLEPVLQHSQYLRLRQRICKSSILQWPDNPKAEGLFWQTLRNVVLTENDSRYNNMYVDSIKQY
Chain of human TLR7 (Q9NYK1 27-1049): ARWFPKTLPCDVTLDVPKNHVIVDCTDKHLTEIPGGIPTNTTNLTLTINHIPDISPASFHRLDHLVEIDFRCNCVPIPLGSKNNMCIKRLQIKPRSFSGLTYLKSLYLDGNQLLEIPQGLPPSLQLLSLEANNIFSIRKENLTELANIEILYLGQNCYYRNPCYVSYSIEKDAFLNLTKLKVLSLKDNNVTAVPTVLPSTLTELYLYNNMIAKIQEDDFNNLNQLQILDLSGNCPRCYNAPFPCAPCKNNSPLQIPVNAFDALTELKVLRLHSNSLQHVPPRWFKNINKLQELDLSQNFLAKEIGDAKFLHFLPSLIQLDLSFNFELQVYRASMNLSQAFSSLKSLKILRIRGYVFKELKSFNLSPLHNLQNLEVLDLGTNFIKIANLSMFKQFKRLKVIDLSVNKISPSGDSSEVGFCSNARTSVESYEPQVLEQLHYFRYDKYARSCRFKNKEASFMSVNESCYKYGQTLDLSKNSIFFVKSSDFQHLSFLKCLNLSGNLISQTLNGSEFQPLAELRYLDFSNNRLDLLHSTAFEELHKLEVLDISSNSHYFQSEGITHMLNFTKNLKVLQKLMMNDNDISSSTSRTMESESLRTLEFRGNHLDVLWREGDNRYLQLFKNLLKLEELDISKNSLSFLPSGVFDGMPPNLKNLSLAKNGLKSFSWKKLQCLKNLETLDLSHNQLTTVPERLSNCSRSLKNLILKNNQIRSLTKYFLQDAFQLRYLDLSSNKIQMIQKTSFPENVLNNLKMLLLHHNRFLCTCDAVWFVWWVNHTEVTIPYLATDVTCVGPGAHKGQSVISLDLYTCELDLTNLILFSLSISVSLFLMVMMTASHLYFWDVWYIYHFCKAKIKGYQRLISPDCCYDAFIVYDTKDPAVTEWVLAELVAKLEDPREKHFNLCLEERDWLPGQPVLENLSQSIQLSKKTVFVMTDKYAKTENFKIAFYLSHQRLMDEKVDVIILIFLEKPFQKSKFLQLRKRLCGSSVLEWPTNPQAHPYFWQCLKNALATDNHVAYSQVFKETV

For `CNCCCNC(=O)c1coc(-c2ccc3[nH]c(-c4cc(C)nc(C)c4)c(C(C)C)c3c2)n1` [Example 279, 2-(2-(2,6-dimethylpyridin-4-yl)-3-isopropyl-1H-indol-5-yl)-N-(3-(methylamino)propyl)oxazole-4-carboxamide], the results for the IC50 on human TLR9, against human TLR7 and at human TLR8 were 128 nM, 14 nM and 8.8 nM, respectively.
With `Cc1cc(-c2[nH]c3ccc(-c4nc(C(=O)NCCCN(C)C)co4)cc3c2C(C)C)cc(C)n1` [Example 280, N-(3-(dimethylamino)propyl)-2-(2-(2,6-dimethylpyridin-4-yl)-3-isopropyl-1H-indol-5-yl)oxazole-4-carboxamide], the IC50 – broadly, the concentration needed to halve the response being measured – on human TLR9 stood at 156 nM; against human TLR7, 3.8 nM; against human TLR8, 1.8 nM.
For `Cc1cc(-c2[nH]c3ccc(-c4nc(C(=O)NCCN5CCOCC5)co4)cc3c2C(C)C)cc(C)n1` [Example 281, 2-(2-(2,6-dimethylpyridin-4-yl)-3-isopropyl-1H-indol-5-yl)-N-(2-morpholinoethyl)oxazole-4-carboxamide], in that order: 11200 nM, 34 nM and 8.7 nM.
For `Cc1cc(-c2[nH]c3ccc(-c4nc(C(=O)N[C@H]5CC[C@H](N)CC5)co4)cc3c2C(C)C)cc(C)n1` [Example 282], in that order: 2380 nM, 72 nM and 16 nM.
Taken in the same sequence, the figures for `CCOC(=O)N1CCC(NC(=O)c2coc(-c3ccc4[nH]c(-c5cc(C)nc(C)c5)c(C(C)C)c4c3)n2)CC1` [Example 283, ethyl 4-(2-(2-(2,6-dimethylpyridin-4-yl)-3-isopropyl-1H-indol-5-yl)oxazole-4-carboxamido)piperidine-1-carboxylate] were 2360 nM, 147 nM and 9.3 nM.
Consider `Cc1cc(-c2[nH]c3ccc(-c4nc(C(=O)NCCCN5CCCC5)co4)cc3c2C(C)C)cc(C)n1` [Example 284, 2-(2-(2,6-dimethylpyridin-4-yl)-3-isopropyl-1H-indol-5-yl)-N-(3-(pyrrolidin-1-yl)propyl)oxazole-4-carboxamide], for which the figures for the IC50 on human TLR9, against human TLR7 and on human TLR8 were 563 nM, 12 nM and 9.6 nM, respectively.
As to `Cc1cc(-c2[nH]c3ccc(-c4nc(C(=O)NCCCCN5CCCC5)co4)cc3c2C(C)C)cc(C)n1` [Example 285, 2-(2-(2,6-dimethylpyridin-4-yl)-3-isopropyl-1H-indol-5-yl)-N-(4-(pyrrolidin-1-yl)butyl)oxazole-4-carboxamide], the half-inhibitory concentration (IC50) at human TLR9 is 466 nM; against human TLR7, 8.6 nM; on human TLR8, 5.6 nM.
For `Cc1cc(-c2[nH]c3ccc(-c4nc(C(=O)NCCCN5CCN(C)CC5)co4)cc3c2C(C)C)cc(C)n1` [Example 286, 2-(2-(2,6-dimethylpyridin-4-yl)-3-isopropyl-1H-indol-5-yl)-N-(3-(4-methylpiperazin-1-yl)propyl)oxazole-4-carboxamide], in that order: 202 nM, 12 nM and 1.9 nM.
As for `Cc1cc(-c2[nH]c3ccc(-c4nc(C(=O)NCC5CCCCN5)co4)cc3c2C(C)C)cc(C)n1` (stereo not drawn) [Example 287, 2-(2-(2,6-dimethylpyridin-4-yl)-3-isopropyl-1H-indol-5-yl)-N-(piperidin-2-ylmethyl)oxazole-4-carboxamide], the IC50 at human TLR9 was determined as 399 nM; against human TLR7, 17 nM; against human TLR8, 6.6 nM.
For `Cc1cc(-c2[nH]c3ccc(-c4nc(C(=O)NCC5CNC5)co4)cc3c2C(C)C)cc(C)n1` [Example 288, N-(azetidin-3-ylmethyl)-2-(2-(2,6-dimethylpyridin-4-yl)-3-isopropyl-1H-indol-5-yl)oxazole-4-carboxamide], in that order: 730 nM, 69 nM and 80 nM.
Take `Cc1cc(-c2[nH]c3ccc(-c4nc(C(=O)NCC(C)(C)N5CCOCC5)co4)cc3c2C(C)C)cc(C)n1` [Example 289, 2-(2-(2,6-dimethylpyridin-4-yl)-3-isopropyl-1H-indol-5-yl)-N-(2-methyl-2-morpholinopropyl)oxazole-4-carboxamide]: the half-maximal inhibitory concentration (IC50) on human TLR9 worked out at 2090 nM; against human TLR7, 100 nM; against human TLR8, 10 nM.
Taken in the same sequence, the figures for `Cc1cc(-c2[nH]c3ccc(-c4nc(C(=O)NC5CCCNC5)co4)cc3c2C(C)C)cc(C)n1` (stereo not drawn) [Example 290, 2-(2-(2,6-dimethylpyridin-4-yl)-3-isopropyl-1H-indol-5-yl)-N-(piperidin-3-yl)oxazole-4-carboxamide] were 3390 nM, 38 nM and 17 nM.
For `Cc1cc(-c2[nH]c3ccc(-c4nc(C(=O)NCCC5CCCN5)co4)cc3c2C(C)C)cc(C)n1` (stereo not drawn) [Example 291, 2-(2-(2,6-dimethylpyridin-4-yl)-3-isopropyl-1H-indol-5-yl)-N-(2-(pyrrolidin-2-yl)ethyl)oxazole-4-carboxamide], in that order: 494 nM, 67 nM and 23 nM.
For `Cc1cc(-c2[nH]c3ccc(-c4nnc(C5CCCN(C(C)C)C5)o4)cc3c2C(C)C)ccn1` (stereo not drawn) [Example 292, 2-(3-isopropyl-2-(2-methylpyridin-4-yl)-1H-indol-5-yl)-5-(1-isopropylpiperidin-3-yl)-1,3,4-oxadiazole], in that order: 551 nM, 44 nM and 2.5 nM.
Take `CNc1ccc(-c2ccc3[nH]c(-c4ccnc(C)c4)c(C(C)C)c3c2)cn1` [Example 293, 5-(3-isopropyl-2-(2-methylpyridin-4-yl)-1H-indol-5-yl)-N-methylpyridin-2-amine]: the IC50 was found to be 39700 nM at human TLR9, 67 nM against human TLR7 and 9.8 nM on human TLR8.
For `Cc1cc(-c2[nH]c3ccc(-c4ccc(NC(=O)C(F)(F)F)nc4)cc3c2C(C)C)ccn1` [Example 295, 2,2,2-trifluoro-N-(5-(3-isopropyl-2-(2-methylpyridin-4-yl)-1H-indol-5-yl)pyridin-2-yl)acetamide], in that order: 17900 nM, 11 nM and 2.7 nM.
For `Cc1cc(-c2[nH]c3ccc(-c4nnc(C5CN6CCC5CC6)o4)cc3c2C(C)C)cc(C)n1` (stereo not drawn) [Example 296, 2-(2-(2,6-dimethylpyridin-4-yl)-3-isopropyl-1H-indol-5-yl)-5-(quinuclidin-3-yl)-1,3,4-oxadiazole], in that order: 310 nM, 4.8 nM and 1.7 nM.
Regarding `Cc1cc(-c2[nH]c3ccc(-c4nnc(C5CN6CCC5CC6)o4)cc3c2C(C)C)cc(C)n1` (stereo not drawn) [Example 297, 2-(2-(2,6-dimethylpyridin-4-yl)-3-isopropyl-1H-indol-5-yl)-5-(quinuclidin-3-yl)-1,3,4-oxadiazole], the IC50 against human TLR9 worked out at 111 nM; against human TLR7, 6.2 nM; against human TLR8 it was 3.1 nM.
For `Cc1cc(-c2[nH]c3ccc(-c4nnc(C5CCCN(C(C)C)C5)o4)cc3c2C(C)C)ccn1` (stereo not drawn) [Example 298, 2-(3-isopropyl-2-(2-methylpyridin-4-yl)-1H-indol-5-yl)-5-(1-isopropylpiperidin-3-yl)-1,3,4-oxadiazole], in that order: 437 nM, 25 nM and 2.7 nM.
Taken in the same sequence, the figures for `Cc1cc(-c2[nH]c3ccc(-c4ccnc(N5CCN(C(C)C)CC5)c4)cc3c2C(C)C)ccn1` [Example 299, 3-isopropyl-5-(2-(4-isopropylpiperazin-1-yl)pyridin-4-yl)-2-(2-methylpyridin-4-yl)-1H-indole] were 1480 nM, 119 nM and 11 nM.
For `CCN(CCN(C)C)C(=O)c1nnc(-c2ccc3[nH]c(-c4cc(C)nc(C)c4)c(C(C)C)c3c2)o1` [Example 300, N-(2-(dimethylamino)ethyl)-5-(2-(2,6-dimethylpyridin-4-yl)-3-isopropyl-1H-indol-5-yl)-N-ethyl-1,3,4-oxadiazole-2-carboxamide], in that order: 346 nM, 10 nM and 2 nM.
Take `Cc1cc(-c2[nH]c3ccc(-c4ccc(N5CCN(C)CC5)nc4)cc3c2C(C)C)cc(C)n1` [Example 301, 2-(2,6-dimethylpyridin-4-yl)-3-isopropyl-5-(6-(4-methylpiperazin-1-yl)pyridin-3-yl)-1H-indole]: the values for the IC50 on human TLR9, on human TLR7 and against human TLR8 were 432 nM, 5.2 nM and 3.6 nM, respectively.
Regarding `Cc1cc(-c2[nH]c3ccc(-c4cc(NC(=O)OC(C)(C)C)c5nccn5c4)cc3c2C(C)C)cc(C)n1` [Example 303, tert-butyl (6-(2-(2,6-dimethylpyridin-4-yl)-3-isopropyl-1H-indol-5-yl)imidazo[1,2-a]pyridin-8-yl)carbamate], the figures for the IC50 at human TLR9, against human TLR7 and against human TLR8 were 33400 nM, 172 nM and 163 nM, respectively.
As to `Cc1cc(-c2[nH]c3ccc(-c4cccnc4)cc3c2C(C)C)cc(C)n1` [Example 304, 2-(2,6-dimethylpyridin-4-yl)-3-isopropyl-5-(pyridin-3-yl)-1H-indole], the results for the IC50 against human TLR9, against human TLR7 and against human TLR8 were 23000 nM, 63 nM and 69 nM, respectively.
For `Cc1cc(-c2[nH]c3ccc(-c4cc5c(s4)CN(C(=O)CN(C)C)CC5)cc3c2C(C)C)ccn1` [Example 305, 2-(dimethylamino)-1-(2-(3-isopropyl-2-(2-methylpyridin-4-yl)-1H-indol-5-yl)-4,7-dihydrothieno[2,3-c]pyridin-6(5H)-yl)ethan-1-one], in that order: 4110 nM, 21 nM and 13 nM.
